# According to the supplement of paper PMC7017272:
# ± gives the standard deviation of the averaged measurements.
# What was measured:
# Conditions in all cases: treatment time: 3 days
# UT-SCC-42A [1] = test: relative IC50 (midpoint of the fitted curve; maximal inhibition may be below 50%); higher = less potent
# Procedure, shortened: (§1)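 The FIMM pipeline was used to fit percent-inhibition dose–response curves, giving IC50, maximal inhibition and drug sensitivity score. Input data were CellTiter-Glo 2.0 luminescence readings, normalised to vehicle (0.1% DMSO) and cell-killing control wells, from HPV-negative HNSCC cell lines seeded at 500 cells/well in 384-well plates. Cells sat on plastic, on Matrigel or Myogel coatings (500 µg/mL), or within Matrigel or Myogel plus rat collagen I, and received compounds at five 10-fold concentrations for 3 days.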
# UT-SCC-40 [2] = test: as above
# Procedure, shortened: as §1
# UT-SCC-24B [3] = test: as above
# Procedure, shortened: as §1
# UT-SCC-106A [4] = test: as above
# Procedure, shortened: as §1
# UT-SCC-73 [5] = test: as above
# Procedure, shortened: as §1
# UT-SCC-44 [6] = test: as above
# Procedure, shortened: as §1
# UT-SCC-28 [7] = test: as above
# Procedure, shortened: as §1
# UT-SCC-81 = test: as above
# Procedure, shortened: as §1
# UT-SCC-42B = test: as above
# Procedure, shortened: as §1
# UT-SCC-42A [8] = test: maximal % inhibition of viability relative to DMSO; higher = stronger effect
# Procedure, shortened: as §1
# UT-SCC-40 [9] = test: as above
# Procedure, shortened: as §1
# UT-SCC-24B [10] = test: as above
# Procedure, shortened: as §1
# UT-SCC-8 = test: as above
# Procedure, shortened: as §1
# UT-SCC-106A [11] = test: as above
# Procedure, shortened: as §1
# UT-SCC-73 [12] = test: as above
# Procedure, shortened: as §1
# UT-SCC-44 [13] = test: as above
# Procedure, shortened: as §1
# UT-SCC-28 [14] = test: as above
# Procedure, shortened: as §1
# [15] = culture condition: embedded in Matrigel
# [16] = culture condition: on top of Matrigel
# [17] = culture condition: on top of Myogel
# [18] = culture condition: plastic 2D (no matrix)
# [19] = culture condition: embedded in Myogel + collagen I
smiles,measurement,setting,value
Cn1cnc2c(F)c(Nc3ccc(Br)cc3F)c(C(=O)NOCCO)cc21 [Binimetinib],relative IC50,UT-SCC-42A [1]; [15],13.8 nM
same,relative IC50,UT-SCC-42A [1]; [16],8.75 nM
same,relative IC50,UT-SCC-42A [1]; [17],14.9 nM
same,relative IC50,UT-SCC-42A [1]; [18],25.5 nM
same,relative IC50,UT-SCC-40 [2]; [15],16.5 nM
same,relative IC50,UT-SCC-40 [2]; [16],39.4 nM
same,relative IC50,UT-SCC-40 [2]; [17],54 nM
same,relative IC50,UT-SCC-40 [2]; [18],51.7 nM
same,relative IC50,UT-SCC-24B [3]; [15],115 nM
same,relative IC50,UT-SCC-24B [3]; [16],101 nM
same,relative IC50,UT-SCC-24B [3]; [18],69 nM
same,relative IC50,UT-SCC-106A [4]; [15],8.97 nM
same,relative IC50,UT-SCC-106A [4]; [16],13.8 nM
same,relative IC50,UT-SCC-106A [4]; [17],101 nM
same,relative IC50,UT-SCC-106A [4]; [18],19.3 nM
same,relative IC50,UT-SCC-73 [5]; [15],28.2 nM
same,relative IC50,UT-SCC-73 [5]; [16],23.7 nM
same,relative IC50,UT-SCC-73 [5]; [17],65.3 nM
same,relative IC50,UT-SCC-73 [5]; [18],27.9 nM
same,relative IC50,UT-SCC-44 [6]; [15],19.6 nM
same,relative IC50,UT-SCC-44 [6]; [17],41.3 nM
same,relative IC50,UT-SCC-28 [7]; [19],> 989 nM
same,relative IC50,UT-SCC-28 [7]; [16],26.5 nM
same,relative IC50,UT-SCC-81; [15],9.22 nM
same,relative IC50,UT-SCC-81; [19],175 nM
same,relative IC50,UT-SCC-81; [16],53.2 nM
same,relative IC50,UT-SCC-81; [17],14.9 nM
same,relative IC50,UT-SCC-81; [18],74.4 nM
same,relative IC50,UT-SCC-42B; [15],9.72 nM
same,relative IC50,UT-SCC-42B; [16],47.8 nM
same,relative IC50,UT-SCC-42B; [18],54.3 nM
same,maximal % inhibition of viability,UT-SCC-42A [8]; [15],48.9 ± 1.6%
same,maximal % inhibition of viability,UT-SCC-42A [8]; [19],24.5 ± 4.6%
same,maximal % inhibition of viability,UT-SCC-42A [8]; [16],52.2 ± 5.8%
same,maximal % inhibition of viability,UT-SCC-42A [8]; [17],28.6 ± 5.7%
same,maximal % inhibition of viability,UT-SCC-42A [8]; [18],46.3 ± 2.8%
same,maximal % inhibition of viability,UT-SCC-40 [9]; [15],77.3 ± 2.2%
same,maximal % inhibition of viability,UT-SCC-40 [9]; [19],58.1 ± 13%
same,maximal % inhibition of viability,UT-SCC-40 [9]; [16],72.4 ± 2%
same,maximal % inhibition of viability,UT-SCC-40 [9]; [17],44.7 ± 8.7%
same,maximal % inhibition of viability,UT-SCC-40 [9]; [18],52.8 ± 6%
same,maximal % inhibition of viability,UT-SCC-24B [10]; [15],60.3 ± 0.64%
same,maximal % inhibition of viability,UT-SCC-24B [10]; [19],49.6 ± 11%
same,maximal % inhibition of viability,UT-SCC-24B [10]; [16],50.7 ± 2.5%
same,maximal % inhibition of viability,UT-SCC-24B [10]; [17],28.6 ± 5.1%
same,maximal % inhibition of viability,UT-SCC-24B [10]; [18],69.4 ± 4.1%
same,maximal % inhibition of viability,UT-SCC-8; [15],40.9 ± 26%
same,maximal % inhibition of viability,UT-SCC-8; [19],19.8 ± 23%
same,maximal % inhibition of viability,UT-SCC-8; [16],28.9 ± 14%
same,maximal % inhibition of viability,UT-SCC-8; [17],29 ± 15%
same,maximal % inhibition of viability,UT-SCC-8; [18],31 ± 25%
same,maximal % inhibition of viability,UT-SCC-106A [11]; [15],48.3 ± 3.9%
same,maximal % inhibition of viability,UT-SCC-106A [11]; [19],16.4 ± 2.9%
same,maximal % inhibition of viability,UT-SCC-106A [11]; [16],60.1 ± 2.9%
same,maximal % inhibition of viability,UT-SCC-106A [11]; [17],20.6 ± 2.3%
same,maximal % inhibition of viability,UT-SCC-106A [11]; [18],62.2 ± 1.8%
same,maximal % inhibition of viability,UT-SCC-73 [12]; [15],80.5 ± 1.5%
same,maximal % inhibition of viability,UT-SCC-73 [12]; [19],53.5 ± 17%
same,maximal % inhibition of viability,UT-SCC-73 [12]; [16],76.8 ± 1.7%
same,maximal % inhibition of viability,UT-SCC-73 [12]; [17],60.7 ± 0.93%
same,maximal % inhibition of viability,UT-SCC-73 [12]; [18],66.9 ± 4.2%
same,maximal % inhibition of viability,UT-SCC-44 [13]; [15],70.1 ± 4.2%
same,maximal % inhibition of viability,UT-SCC-44 [13]; [19],31.5 ± 8.1%
same,maximal % inhibition of viability,UT-SCC-44 [13]; [16],52.9 ± 11%
same,maximal % inhibition of viability,UT-SCC-44 [13]; [17],34 ± 5.1%
same,maximal % inhibition of viability,UT-SCC-44 [13]; [18],45 ± 6.7%
same,maximal % inhibition of viability,UT-SCC-28 [14]; [15],38.5 ± 2.6%
same,maximal % inhibition of viability,UT-SCC-28 [14]; [19],12.5 ± 11%
same,maximal % inhibition of viability,UT-SCC-28 [14]; [16],31.2 ± 2.9%
same,maximal % inhibition of viability,UT-SCC-28 [14]; [18],21.9 ± 6.2%
